The record followed here is US9849151B2, “Salacia compositions, methods of treatment by their administration, and methods of their preparation” (priority 2013, dated 2017).

Assay [1] in a line: Antioxidant activity by DPPH assay. The conditions noted are these: at 20 μM. Here is the method:
The capacity of plant extracts or fractions to directly react with and quench free radicals was evaluated as described earlier (Cheng et al 2006). A stock solution of DPPH (200 μM) was prepared in ethanol. The assay was performed in 96-well plates. The reaction mixture, containing 100 μL of DPPH and 100 μL of test sample, was incubated at 37° C. for 30 min. The absorbance was measured at 515 nm. Gallic acid was used as a positive control. Percent DPPH radical scavenging activity was calculated as follows. [Reference: Cheng Z, Morre J, Yub L (2006) J Agric Food Chem, 54: 7429-7436] % radical scavenging activity=[1−(sample-blank)/(control-blank)]×100
A general note: Loss of DPPH colour is used to gauge radical scavenging.

In assay [2] the test system is Hormone Sensitive lipase (HSL). As to the kind of experiment: Hormone Sensitive Lipase assay, Western blot densitometry of adipocyte lysates. In kind it is cell-based. The conditions noted are these: 3T3L1 adipocytes treated 24 h, non-treated = 1.00. As to the method: The glycerol released after 24 h in the cell media was assessed using glycerol reagent (sigma) and expressed relative to the cellular protein content. The protein content was assessed using bicinchoninic acid (BCA) PierceTM kit. […] Proteins were collected from cell lysates of 3T3L1 adipocytes treated for 24 h with the Salacia composition or isoproterenol. Protein samples were blotted and probed for total hormone sensitive lipase (HSL), and phosphorylated hormone sensitive lipase at […]. Then, the ratio of phosphorylated-HSL to total HSL was compared between treated and non-treated samples.
Background: Immunoblotting shows a protein as a band on a membrane.

The subject of a further assay is 3T3L1 cells. As to the kind of experiment: Lipolysis assay, glycerol release in 3T3L1 adipocytes. The assay is classed as cell-based. The following applies: 24 h, Salacia composition 100 ug/ml, isoproterenol 10 uM, ratio higher than 1.40 = enhances lipolysis. Here is the method: The assay is carried out to assess the ability of the extracts to breakdown triglycerides to glycerol and free fatty acids. The Salacia composition, such as that of Example 1 was screened for lipolysis in 3T3L1 cell model. 3T3L1 preadipocytes were cultured for a week in Dulbecco modified Eagle's medium (DMEM) supplemented with 10% new calf serum, 25 mM glucose, 2 mM glutamine, 100 U/ml penicillin, 100 ug/ml streptomycin at 37° C. in 5% CO2 atmosphere until 100% confluence. Two days after confluence, the differentiation of 3T3L1 into adipocytes was initiated using (DMEM) supplemented with 10% fetal bovine serum (FBS), 25 mM glucose, 2 mM glutamine, 100 U/ml penicillin, 100 ug/ml streptomycin and differentiation inducers (0.5 mM isobutyl-methylxanthine (IBMX), 10 μg/ml insulin and 1 μM dexamethasone) for 48 h (day 0-day 2). The cells were then cultured for another 48 h with the same medium containing only 10 μg/ml insulin (day 2 to day 4), then with only the medium (day 4 to day 6). The Salacia composition, such as that of Example 1 was added to the medium at the concentration 100 ug/ml for 24 h and assessed for lipolysis. […] The glycerol released after 24 h in the cell media was assessed using glycerol reagent (sigma) and expressed relative to the cellular protein content. The protein content was assessed using bicinchoninic acid (BCA) PierceTM kit. […]

In the case of `O=C(O)c1cc(O)c(O)c(O)c1` [Gallic acid], in assay [1], the “% radical scavenging activity (DPPH)” value is 86%.
Turning to `CC(C)NCC(O)c1ccc(O)c(O)c1` (centres unmarked) [Isoproterenol], the “Phospho-HSL (densitometry)” value in assay [2] (Serine 563) came out at 2.63. Also, in assay [2], the “Ratio phosphorylated-HSL/Total HSL” value was determined as 1.01 and the “Total HSL (densitometry)” value is 2.60. Further, the Glycerol/protein ratio with 3T3L1 cells was 1.50.
